Measured values as given in patent US12297176B2, “Compounds and methods for inhibiting EMT pathways to treat cancer, organ fibrosis and metabolic disorders” (University of Pittsburgh—Of the Commonwealth System of …, priority 2017, dated 2025).

Assays:
Akt = test: Phosphorylation of Akt; assay type: cell-based
Text: (§1) FIGS. 2A-2D. Putative mechanism. FIG. 2A. Effect of CPADAML16 on Hippo pathway transduces YAP, TAZ and TEAD measured by Western blot. FIG. 2B. Possible signaling pathways leading to degradation of TAZ. The effects of CPADAML16 on the Mst/Lats kinases and the Akt/GSK3 beta axis are shown in FIGS. 2C and 2D, respectively.
(§2) There are three possibilities by which this might occur (FIG. 2B): 1) through activation Mst/Lats, 2) inhibition of Akt or 3) activation of AMPK. […] In light of recent findings that TAZ is also target of the GSK3 beta associated destruction complex, we reasoned that CPADAML16 may act directly or indirectly to activate this complex. […] These effects were concentration and time dependent and valid in various cell lines […]. […] Together these findings identified AMPK as a novel target of CPADAML16, shedding light on a new mechanism by which this compound could signal for TAZ degradation and inhibition of Hippo signaling.

[1] = system: three melanoma and one breast cancer cell lines; test: Cell proliferation after 5 days of incubation; assay type: cell-based
Protocol: (§3) FIGS. 4A-4C. Inhibition of cell migration, proliferation and resistance to therapy by CPADAML16. FIG. 4A. Cell monolayer scratch depicting inhibition of cell migration by CPADAML16. FIG. 4B. Effect on cell proliferation measured after 5 days of incubation. FIG. 4C. Cell response to doxorubicin was measured in the presence and absence of CPADAML16. Data in FIG. 4C represent average of three determinations ±SE.

AMPK = test: Phosphorylation of AMPK at threonine 172; assay type: cell-based
Text: FIGS. 3A-3G. Effect of CPADAML16 on […]. FIGS. 3A and 3B. Dose and time dependent effects of CPADAML16 on phosphorylation of AMPK. FIG. 3C. Effect of AICAR on phosphorylation of AMPK. FIG. 3D. Effect of CPADAML16 on phosphorylation of AMPK downstream target ACC. FIGS. 3E-3G. Confirmation CPADAML16-induced AMPK phosphorylation in different cell lines.
as §2

Hippo pathway = Hippo pathway luciferase reporter in 293 cells; assay type: cell-based; conditions: 24 hours
Protocol: (§4) FIGS. 1A-1C. CPADAML16 is a common inhibitor of Wnt (FIG. 1C), TGF beta (FIG. 1B), and Hippo (FIG. 1A). 293 cells were transfected with luciferase reporters corresponding to each pathway and then exposed to CPADAML16, the Wnt inhibitor Pyrvinium (PYR) or the TGF beta inhibitor SB-431 at the indicated concentrations. After 24 hours, the cells were lysed and luciferase activity measured. Data represents average of three replicates ±SE.
The present disclosure concerns the discovery of small molecules inhibitors of major EMT pathways particularly those mediated by TGF beta, Wnt and Hippo. These pathways are known to play key roles in the induction of epithelial-mesenchymal transition (EMT) a cellular process responsible for cancer metastasis, resistance to therapy and organ fibrosis. […] In a search for putative inhibitors of the Hippo pathway, a luciferase reporter system was used to screen a series of chemical compounds. […] CPADAML16 suppressed cancer cell ability to undergo EMT, to proliferate and to become drug resistant. Investigation of the underlying mechanism led to the finding that CPADAML16 induces degradation of the Hippo transducer TAZ mainly by activating AMPK upstream of the GSK3 beta associated degradation complex. CPADAML16 exerted a strong anti-tumor activity in a xenograft mice model with no noticeable toxicity. […]

melanoma cells WM266 = test: Anti-tumor activity in mice bearing xenograft tumors; assay type: in vivo, nude mice (strain CD1); conditions: 20 mg/Kg, 3 injections, end of experiment
Protocol: (§5) FIGS. 5A-5B. Effect of CPADAML16 (20 mg/kg) on tumor growth (FIG. 5A) and body weight (FIG. 5B). Data represents 7 replicates ±SE.
(§6) Experiments were carried out to analyse the anti-tumor activity and safety of CPADAML16 in mice bearing xenograft tumors. For this, nude mice (strain CD1) were sub-cutaneously inoculated with melanoma cells WM266 and after tumors became palpable, they were randomized into control and treatment groups and received 3 injections (starting on day 15 and separated by three days) of vehicle (control group) or CPADAML16 dissolved in the vehicle solution (treatment groups). Tumor volumes and body weight were measured and mice evaluated for signs of toxicity on a daily basis. At the end of experiments, the animals were sacrificed and tumors harvested to determine if molecular targets of CPADAML16 were altered.

MST1 = test: Activation (phosphorylation) of Hippo core kinase MST1; assay type: cell-based
Text: as §1, §2

cell migration = test: Cell monolayer scratch, cell migration; assay type: cell-based
Protocol: as §3

TGF beta signaling = test: TGF beta pathway luciferase reporter in 293 cells; assay type: cell-based; conditions: 24 hours
Protocol: as §4
(§7) By comparison, none of Wnt or TGF beta inhibitors had affected the Hippo pathway reporter. Based on this, CPADAML16 may represent a unique candidate molecule to target simultaneously the Hippo, Wnt and TGF beta pathways.

[2] = Body weight and signs of toxicity in xenograft mice; assay type: in vivo, nude mice (strain CD1); conditions: WM266 xenograft mice
Protocol: as §5, §6

Lats1 = test: Activation (phosphorylation) of Hippo core kinase Lats1; assay type: cell-based
Text: as §1, §2

Wnt signaling = test: Wnt pathway luciferase reporter in 293 cells; assay type: cell-based; conditions: 24 hours
Protocol: as §4, §7

GSK3 beta = test: Phosphorylation of GSK3; assay type: cell-based; conditions: inhibited phosphorylation = induced activation
Text: as §1, §2

TAZ = test: Western blot of Hippo pathway transducers: TAZ; assay type: cell-based
Text: as §1, §2

TEAD = test: Western blot of Hippo pathway transducers: TEAD; assay type: cell-based
Text: as §1, §2

YAP = test: Western blot of Hippo pathway transducers: YAP; assay type: cell-based
Text: as §1, §2

melanoma cell = test: Cell response to doxorubicin with and without compound; assay type: cell-based
Protocol: as §3

**Q.** For `CCCCCOc1ccccc1C(=O)c1cc(C(=O)OCC)c(=O)n(Cc2ccccc2)c1` [CPADAML16, 3-Ethoxycarbonyl-5-(o-pentyloxybenzoyl)-1-(benzyl)pyridin-2-one], which “phosphorylation of Akt” value (Akt) is on record?
**A.** not due to reduced phosphorylation of Akt

**Q.** And the proliferation [1]?
**A.** strongly inhibits

**Q.** And the “potency of AMPK activation compared with AICAR” value (AMPK)?
**A.** more potent than AICAR

**Q.** What about the “phosphorylation of AMPK at threonine 172” value (AMPK; concentration and time dependent, various cell lines) of the same compound?
**A.** strongly induced phosphorylation

**Q.** What about the “Hippo pathway reporter luciferase activity” value (Hippo pathway) of the same compound?
**A.** remarkable inhibitory activity

**Q.** And the tumor growth inhibition (melanoma cells WM266)?
**A.** about 90%

**Q.** What about the “phosphorylation of MST1” value (MST1) of the same compound?
**A.** did not affected phosphorylation

**Q.** And the cell migration (cell migration)?
**A.** strongly inhibits

**Q.** What about the “TGF beta signaling reporter luciferase activity” value (TGF beta signaling) of the same compound?
**A.** remarkably inhibited

**Q.** And the body weight ([2]; 20 mg/kg)?
**A.** did not change significantly

**Q.** What about the “health / signs of toxicity” value ([2]; evaluated daily) of the same compound?
**A.** in good health throughout the experiment

**Q.** What about the “phosphorylation of Lats1” value (Lats1) of the same compound?
**A.** did not affected phosphorylation

**Q.** What about the “Wnt signaling reporter luciferase activity” value (Wnt signaling) of the same compound?
**A.** remarkably inhibited

**Q.** And the “phosphorylation of GSK3” value (GSK3 beta)?
**A.** inhibited phosphorylation

**Q.** And the Taz levels (TAZ)?
**A.** reduced in a concentration dependent manner

**Q.** What about the TEAD levels (TEAD) of the same compound?
**A.** largely unaltered

**Q.** And the YAP levels (YAP)?
**A.** largely unaltered

**Q.** And the “melanoma cell response to doxorubicin in the presence of the compound” value (melanoma cell)?
**A.** significantly enhanced
